Drawing on PubChem BioAssay (NCI), this text covers TGI for 15 molecules.

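Cells were grown in 96-well plates and exposed to each compound for 48 hours at five concentrations; endpoints were interpolated linearly between bracketing concentrations, or set to the highest concentration if not reached. Definition used: TGI = concentration required for complete inhibition of growth.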

What all share (experiment): NCI tumour cell line growth inhibition, 48 h
For experiment [1], the system named is RPMI-8226 leukemia.
For experiment [2], the system named is MOLT-4 leukemia.
The subject of experiment [3] is IGROV1 ovarian.
Experiment [4] relates to OVCAR-3 ovarian.
For experiment [5], the system named is UO-31 renal.
Experiment [6] concerns MALME-3M melanoma.
Experiment [7] concerns NCI-H23 lung.
Experiment [8] concerns K-562 leukemia.
In experiment [9] the test system is HOP-62 NSCLC.
For experiment [10], the system named is OVCAR-4 ovarian.
In experiment [11] the test system is COLO 205 colon.
In experiment [12] the test system is A549 NSCLC.
Experiment [13] deals with NCI-H460 lung.
The test system of experiment [14] is HCT-116 colon.
Experiment [15] has as its system SN12C renal.
In experiment [16] the test system is HL-60(TB) leukemia.
The subject of experiment [17] is SK-MEL-2 melanoma.
Experiment [18] deals with SF-295 CNS.
For experiment [19], the system named is LOX IMVI melanoma.

For the molecule `O=C(CCC(NC(=O)OCc1ccccc1)C(=O)OCc1ccccc1)Nc1ccc(OCc2ccccc2)cc1` (centres undefined), the TGI in [1] was more than 10 µM; in experiment [2] it was more than 31.6 µM; in experiment [3], more than 31.6 µM; in experiment [4], more than 100 µM; in experiment [5] it was more than 10 µM; in [6], more than 31.6 µM. Moreover, the TGI was more than 31.6 µM in experiment [7]; more than 31.6 µM in [8]; more than 100 µM in experiment [9]; more than 31.6 µM in experiment [10]; more than 31.6 µM in experiment [11]; more than 31.6 µM in experiment [12]. Moreover, the TGI is more than 31.6 µM in experiment [13]; 17.1 µM in [14]; more than 31.6 µM in [15]; more than 31.6 µM in experiment [16]; more than 10 µM in [17]; more than 31.6 µM in experiment [18]. In experiment [19], this molecule had a TGI of more than 31.6 µM.
For `CC(=O)OCC1OC(SC2=N/C(=C\c3cc4c(=O)c5ccccc5sc4s3)C(=O)N2c2ccccc2)C(OC(C)=O)C(OC(C)=O)C1OC(C)=O` (centres undefined), the TGI was more than 100 µM in experiment [1]; 54.4 µM in experiment [2]; more than 100 µM in [3]; more than 100 µM in experiment [4]; more than 100 µM in [5]; more than 100 µM in experiment [6]. The TGI in experiment [7], in [8], in [9], in experiment [10], in experiment [11] and in experiment [13] was more than 100 µM throughout. The TGI in experiment [14] was more than 100 µM; in experiment [15], more than 100 µM; in [16] it was 53.3 µM; in experiment [17], more than 100 µM; in experiment [18], more than 100 µM; in [19] it was more than 100 µM.
For the molecule `CCOC(CN=C=S)OCC`, the TGI in experiment [1], in experiment [2], in experiment [3], in experiment [4], in experiment [5] and in experiment [6] was more than 10 µM each time. The TGI in experiment [7], in [8], in experiment [9], in experiment [10], in experiment [11] and in experiment [12] was more than 10 µM in each case. For the same molecule, the TGI in experiment [13], in [14], in [15], in experiment [16], in [17] and in experiment [18] was more than 10 µM throughout. In [19], the TGI was more than 10 µM.
In the case of `CC(=O)N1C(c2[nH]c3ccccc3c2-c2ccccc2)CCN1c1ccccc1` (centres undefined), the TGI in [1], in experiment [2], in [3], in experiment [4], in experiment [5] and in [6] was more than 10 µM in each case. Also, the TGI in experiment [7], in experiment [8], in experiment [9], in experiment [10], in experiment [11] and in experiment [12] was more than 10 µM in each case. The TGI in experiment [13], in experiment [14], in [15], in experiment [16], in [17] and in experiment [18] was more than 10 µM each time. The same molecule registered a TGI in experiment [19] of more than 10 µM.
In the case of `Cc1ccc(C2=Nc3cccc4cccc(c34)N2)cc1`, the TGI in experiment [1], in experiment [2], in experiment [3], in experiment [4], in experiment [5] and in experiment [6] was more than 100 µM throughout. Besides, the TGI in experiment [7], in experiment [8], in experiment [9], in experiment [10], in experiment [11] and in [12] was more than 100 µM in each case. Moreover, the TGI in experiment [13], in [14], in experiment [15], in [16], in [17] and in [18] was more than 100 µM throughout. The TGI in experiment [19] was more than 100 µM.
`N#CC12C(=O)N3C(=NC(c4ccccc4)NC3c3ccccc3)C1(C#N)C(c1ccccc1)NC1=C2CCC1` (centres undefined): the TGI in experiment [1], in experiment [2], in experiment [3], in experiment [4], in experiment [5] and in experiment [6] was more than 100 µM each time. Moreover, the TGI in experiment [7], in experiment [8], in experiment [9], in experiment [10], in experiment [11] and in [12] was more than 100 µM throughout. For the same molecule, the TGI in experiment [13], in [14], in experiment [15], in experiment [16], in experiment [17] and in [18] was more than 100 µM in each case. In addition, the TGI in [19] was more than 100 µM.
In the case of `O=[N+]([O-])c1ccc(-c2csc3nc(-c4ccccc4)nn23)cc1`, the TGI in experiment [1], in [2], in experiment [3], in experiment [4], in experiment [5] and in experiment [6] was more than 100 µM throughout. In addition, the TGI in experiment [7], in experiment [8], in experiment [9], in experiment [10], in [11] and in [12] was more than 100 µM each time. The TGI in experiment [14], in experiment [15], in [16], in [17], in experiment [18] and in experiment [19] was more than 100 µM each time.
Consider `CCC1NC(=O)C1NC(=O)OC` (centres undefined), for which the TGI in [1], in [2], in experiment [3], in [4], in experiment [5] and in experiment [6] was more than 100 µM throughout. For the same molecule, the TGI in experiment [7], in [8], in experiment [9], in experiment [10], in experiment [11] and in [13] was more than 100 µM in each case. The TGI in experiment [14], in experiment [15], in experiment [16], in [17], in experiment [18] and in experiment [19] was more than 100 µM throughout.
For the molecule `O=C1c2c(ccc3c2CCCC3)CC12Cc1ccc3c(c1C2=O)CCCC3`, the TGI in [1], in experiment [2], in experiment [3], in [4], in experiment [5] and in [6] was more than 100 µM each time. The TGI in experiment [7], in experiment [8], in experiment [9], in experiment [10], in experiment [12] and in [13] was more than 100 µM each time. In addition, the TGI in experiment [14], in experiment [16], in experiment [17], in experiment [18] and in experiment [19] was more than 100 µM in each case.
Regarding `S=c1sc2c(s1)SCCCCSCCCCSc1sc(=S)sc1SCCCCSCCCCS2`, the TGI in experiment [1], in experiment [2], in [3], in experiment [4], in experiment [5] and in [6] was more than 100 µM in each case. Also, the TGI in experiment [7], in experiment [8], in experiment [9], in [11], in experiment [12] and in experiment [13] was more than 100 µM in each case. In addition, the TGI in [14], in experiment [15], in experiment [16], in experiment [17], in experiment [18] and in [19] was more than 100 µM each time.
In the case of `CCN(CC)CCCNc1nc(=O)[nH]c(C)c1C(=O)Nc1cccc2cc3ccccc3cc12`, the TGI in [1], in experiment [2], in experiment [3], in [4], in experiment [5] and in experiment [6] was more than 100 µM throughout. For the same molecule, the TGI in [7], in experiment [8], in [9], in experiment [10], in experiment [11] and in experiment [12] was more than 100 µM in each case. The TGI in experiment [14], in [15], in experiment [16], in [17], in [18] and in experiment [19] was more than 100 µM in each case.
Consider `NC1CC(=O)c2sc(I)cc21` (centres undefined), for which the TGI in experiment [1], in experiment [2], in experiment [3], in experiment [4], in experiment [5] and in [6] was more than 100 µM throughout. The TGI in experiment [8], in experiment [9], in experiment [11], in [12], in experiment [13] and in experiment [14] was more than 100 µM in each case. Besides, the TGI is more than 100 µM in [15], 78.7 µM in experiment [16] and more than 100 µM in experiment [17].
As for `Nc1ncnc2ccc(Sc3ccc4ncnc(N)c4c3)cc12`, the TGI in experiment [1], in experiment [2], in experiment [3], in experiment [4], in experiment [5] and in experiment [6] was more than 100 µM in each case. Moreover, the TGI in [8], in experiment [9], in experiment [10], in experiment [11], in [12] and in experiment [13] was more than 100 µM each time. The TGI in experiment [14], in experiment [15], in [16], in [17], in experiment [18] and in experiment [19] was more than 100 µM throughout.
As to `O=C(c1cccc2ccccc12)C1(Br)S(=O)(=O)OCCOS1(=O)=O`, the TGI in [1], in [2], in experiment [4], in [5], in experiment [6] and in experiment [7] was more than 100 µM each time. Also, the TGI in [9], in [10], in [11], in experiment [12], in [13] and in experiment [14] was more than 100 µM each time. Further, the TGI in experiment [15], in [16], in [17], in experiment [18] and in experiment [19] was more than 100 µM each time.
For `COC(O)C(=O)c1c2c(cc3c1CC1(Cc4cc5c(cc4C1)CCC5)C3)CCC2` (centres undefined), the TGI in experiment [1] amounted to 30 µM; in experiment [2], 33.8 µM; in [3], 26 µM; in experiment [4] it was 28.9 µM; in experiment [5] it was 35.8 µM; in experiment [6] it was 31.2 µM. Besides, the TGI in experiment [7] was 33.1 µM; in experiment [8] it was 36.2 µM; in [9], 30.2 µM; in experiment [10] it was 33.9 µM; in [12], 32.6 µM; in experiment [13], 42.7 µM. Also, the TGI was determined as 20.9 µM in [14]; 44.3 µM in [16]; 32.1 µM in experiment [17]; 41.8 µM in experiment [18]; 22.8 µM in experiment [19].
